According to ChEMBL document CHEMBL2440076, “New triarylpyrazoles as broad-spectrum anticancer agents: design, synthesis, and biological evaluation” (Eur J Med Chem, 2013):

What was measured:
NCI-H460 = assay: Growth inhibition of human NCI-H460 cells after 48 hrs by sulforhodamine B assay; assay type: functional; details: NCI-H460, 48 h
BT-549 = assay: Growth inhibition of human BT549 cells after 48 hrs by sulforhodamine B assay; assay type: functional; details: BT-549, 48 h
HOP-62 = assay: Growth inhibition of human HOP62 cells assessed as cell growth at 10 uM after 48 hrs by sulforhodamine B assay; assay type: functional; details: HOP-62, 48 h, read-out: Activity
U-251 = assay: Growth inhibition of human U251 cells assessed as cell growth at 10 uM after 48 hrs by sulforhodamine B assay; assay type: functional; details: U-251, 48 h, read-out: Activity
NCI-H322M = assay: Growth inhibition of human NCI-H322M cells after 48 hrs by sulforhodamine B assay; assay type: functional
HL-60(TB) = assay: Growth inhibition of human HL-60(TB) cells after 48 hrs by sulforhodamine B assay; assay type: functional; details: HL-60, 48 h
T47D = assay: Growth inhibition of human T47D cells assessed as cell growth at 10 uM after 48 hrs by sulforhodamine B assay; assay type: functional; details: read-out: Activity
DU-145 = assay: Growth inhibition of human DU145 cells assessed as cell growth at 10 uM after 48 hrs by sulforhodamine B assay; assay type: functional; details: DU-145, 48 h, read-out: Activity
MOLT-4 = assay: Growth inhibition of human MOLT4 cells after 48 hrs by sulforhodamine B assay; assay type: functional; details: MOLT-4, 48 h
RXF 393 = assay: Growth inhibition of human RXF393 cells after 48 hrs by sulforhodamine B assay; assay type: functional; details: RXF 393, 48 h
OVCAR-5 [1] = assay: Growth inhibition of human OVCAR5 cells after 48 hrs by sulforhodamine B assay; assay type: functional; details: OVCAR-5, 48 h
PC-3 = assay: Growth inhibition of human PC3 cells after 48 hrs by sulforhodamine B assay; assay type: functional, cell-based; details: PC-3, 48 h
NCI-H23 = assay: Growth inhibition of human NCI-H23 cells assessed as cell growth at 10 uM after 48 hrs by sulforhodamine B assay; assay type: functional; details: NCI-H23, 48 h, read-out: Activity
SF-295 = assay: Growth inhibition of human SF295 cells after 48 hrs by sulforhodamine B assay; assay type: functional, cell-based; details: SF-295, 48 h
SK-MEL-2 = assay: Growth inhibition of human SK-MEL-2 cells after 48 hrs by sulforhodamine B assay; assay type: functional; details: SK-MEL-2, 48 h
UACC-257 = assay: Growth inhibition of human UACC257 cells after 48 hrs by sulforhodamine B assay; assay type: functional; details: UACC-257, 48 h
KM12 = assay: Growth inhibition of human KM12 cells after 48 hrs by sulforhodamine B assay; assay type: functional, cell-based; details: KM12, 48 h
OVCAR-5 [2] = assay: Growth inhibition of human OVCAR5 cells assessed as cell growth at 10 uM after 48 hrs by sulforhodamine B assay; assay type: functional; details: OVCAR-5, 48 h, read-out: Activity
IGROV-1 = assay: Growth inhibition of human IGROV1 cells after 48 hrs by sulforhodamine B assay; assay type: functional; details: IGROV-1, 48 h
SW-620 = assay: Growth inhibition of human SW620 cells assessed as cell growth at 10 uM after 48 hrs by sulforhodamine B assay; assay type: functional; details: SW-620, 48 h, read-out: Activity
MDA-MB-231 [3] = assay: Growth inhibition of human MDA-MB-231 cells assessed as cell growth at 10 uM after 48 hrs by sulforhodamine B assay; assay type: functional; details: MDA-MB-231, 48 h, read-out: Activity
MCF7 = assay: Growth inhibition of human MCF7 cells after 48 hrs by sulforhodamine B assay; assay type: functional; details: MCF7, 48 h
[4] = Growth inhibition of human NCI-ADR-RES cells after 48 hrs by sulforhodamine B assay; assay type: functional
MDA-MB-435 = assay: Growth inhibition of human MDA-MB-435 cells after 48 hrs by sulforhodamine B assay; assay type: functional, cell-based; details: MDA-MB-435, 48 h
MDA-MB-231 [5] = assay: Growth inhibition of human MDA-MB-231 cells after 48 hrs by sulforhodamine B assay; assay type: functional; details: MDA-MB-231, 48 h
RPMI-8226 = assay: Growth inhibition of human RPMI8226 cells assessed as cell growth at 10 uM after 48 hrs by sulforhodamine B assay; assay type: functional; details: RPMI-8226, 48 h, read-out: Activity
SK-MEL-28 = assay: Growth inhibition of human SK-MEL-28 cells assessed as cell growth at 10 uM after 48 hrs by sulforhodamine B assay; assay type: functional; details: SK-MEL-28, 48 h, read-out: Activity
CCRF-CEM = assay: Growth inhibition of human CCRF-CEM cells after 48 hrs by sulforhodamine B assay; assay type: functional
K562 = assay: Growth inhibition of human K562 cells assessed as cell growth at 10 uM after 48 hrs by sulforhodamine B assay; assay type: functional; details: K562, 48 h, read-out: Activity
[6] = Growth inhibition of human Hs 578T cells after 48 hrs by sulforhodamine B assay; assay type: functional
SF-268 = assay: Growth inhibition of human SF268 cells assessed as cell growth at 10 uM after 48 hrs by sulforhodamine B assay; assay type: functional; details: SF-268, 48 h, read-out: Activity
M14 = assay: Growth inhibition of human M14 cells assessed as cell growth at 10 uM after 48 hrs by sulforhodamine B assay; assay type: functional; details: M14, 48 h, read-out: Activity
COLO 205 = assay: Growth inhibition of human COLO205 cells assessed as cell growth at 10 uM after 48 hrs by sulforhodamine B assay; assay type: functional; details: COLO 205, 48 h, read-out: Activity
[7] = read-out: LC50 (the source's name)

Compound O=C(Nc1cccc(-n2cc(-c3ccncc3)c(-c3ccc(Cl)c(O)c3)n2)c1)Nc1ccc(Cl)c(C(F)(F)F)c1 has a GI50 (NCI-H460) of 1010 nM, an LC50 (NCI-H460) greater than 32500 nM and a TGI (NCI-H460) of 4000 nM. For the same compound, the GI50 (BT-549) was 1250 nM, the LC50 (50% lethal concentration) (BT-549) was greater than 32500 nM and the TGI (BT-549) was 8070 nM. For the same compound, the growth at 10 µM (HOP-62) was -17%, the growth at 10 µM (U-251) was -70.4% and the GI50 (NCI-H322M) was 1090 nM. It also gave a TGI (NCI-H322M) of 4480 nM, a CC50 (NCI-H322M; [7]) of 24700 nM and a GI50 (HL-60(TB)) of 1500 nM. It also gave a TGI (HL-60(TB)) greater than 32500 nM, a CC50 (HL-60(TB); [7]) greater than 32500 nM and a growth at 10 µM (T47D) of -7.12%. The growth at 10 µM (DU-145) was -17%, the GI50 (MOLT-4) was 777 nM and the TGI (MOLT-4) was 2930 nM. The CC50 (MOLT-4; [7]) was greater than 32500 nM, the GI50 (RXF 393) was 508 nM and the LC50 (concentration killing 50% of cells) (RXF 393) was greater than 32500 nM. It also gave a TGI (RXF 393) of 1670 nM, a GI50 (OVCAR-5 [1]) of 1570 nM and an LC50 (concentration killing 50% of cells) (OVCAR-5 [1]) greater than 32500 nM. It also gave a TGI (OVCAR-5 [1]) of 16200 nM, an IC50 (PC-3) of 590 nM and a CC50 (PC-3; [7]) greater than 32500 nM. The growth at 10 µM (NCI-H23) was -25.8%, the GI50 (SF-295) was 740 nM and the IC50 (SF-295) was 740 nM. The TGI (SF-295) was 2060 nM, the CC50 (SF-295; [7]) was greater than 32500 nM and the GI50 (SK-MEL-2) was 798 nM. For the same compound, the LC50 (50% lethal concentration) (SK-MEL-2) was 5840 nM, the TGI (SK-MEL-2) was 1730 nM and the GI50 (UACC-257) was 768 nM. The TGI (UACC-257) was 2100 nM, the CC50 (UACC-257; [7]) was 8390 nM and the GI50 (KM12) was 1000 nM. For the same compound, the TGI (KM12) was 3510 nM, the CC50 (KM12; [7]) was 17400 nM and the growth at 10 µM (OVCAR-5 [2]) was 23.3%. It also gave a GI50 (IGROV-1) of 715 nM, an LC50 (concentration killing 50% of cells) (IGROV-1) greater than 32500 nM and a TGI (IGROV-1) of 2220 nM. For the same compound, the growth at 10 µM (SW-620) was -19.7%, the growth at 10 µM (MDA-MB-231 [3]) was -36.4% and the GI50 (MCF7) was 663 nM. For the same compound, the LC50 (MCF7) was greater than 32500 nM, the TGI (MCF7) was greater than 32500 nM and the GI50 [4] was 844 nM. It also gave a TGI [4] of 2750 nM, a CC50 [4, 7] greater than 32500 nM and a GI50 (MDA-MB-435) of 660 nM. The IC50 (MDA-MB-435) was 660 nM, the TGI (MDA-MB-435) was 1770 nM and the CC50 (MDA-MB-435; [7]) was 21500 nM. For the same compound, the GI50 (MDA-MB-231 [5]) was 488 nM, the LC50 (MDA-MB-231 [5]) was 11400 nM and the TGI (MDA-MB-231 [5]) was 1440 nM. It also gave a growth at 10 µM (RPMI-8226) of -10.5%, a growth at 10 µM (SK-MEL-28) of -31.5% and a GI50 (CCRF-CEM) of 719 nM. The LC50 (CCRF-CEM) was greater than 32500 nM, the TGI (CCRF-CEM) was 2700 nM and the growth at 10 µM (K562) was -20.8%. It also gave a GI50 [6] of 797 nM, a TGI [6] of 11200 nM and a CC50 [6, 7] greater than 32500 nM. It also gave a growth at 10 µM (SF-268) of -34.5%, a growth at 10 µM (M14) of -25.5% and a growth at 10 µM (COLO 205) of -60.2%.
